In patent US20230278957A1, “TREX1 INHIBITORS AND USES THEREOF” (WAKE FOREST UNIVERSITY HEALTH SCIENCES, priority 2020, published 2023):
Entries after “also recorded” stand apart in the source; their conditions may differ. Read-outs that look alike come from different tables or passages of the source.

Tests used:
Assay type in all cases: biochemical
[1] = molecular target: T1, recombinant hTREX1(1-242)WT (hT1) (Homo sapiens, UniProt Q9NSU2); test: fluorescence-based exonuclease assay, hTREX1 IC50 and HTS
T1 construct: recombinant hTREX1(1-242)^WT
T1 sequence (Q9NSU2 1-242): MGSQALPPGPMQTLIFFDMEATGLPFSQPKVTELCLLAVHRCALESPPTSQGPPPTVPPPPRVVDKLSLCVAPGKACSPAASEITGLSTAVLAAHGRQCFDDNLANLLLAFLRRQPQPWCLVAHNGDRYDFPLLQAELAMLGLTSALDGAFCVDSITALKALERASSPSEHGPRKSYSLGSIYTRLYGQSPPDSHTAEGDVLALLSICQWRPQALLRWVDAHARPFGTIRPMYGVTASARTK
Experimental: FIG. 1: Determining IC50 of Candidate Compounds. […] Standard time-course reactions were prepared in 150 µL volumes containing vehicle or indicated concentrations of inhibitor (Panel A= 0.1-10 µM; Panel C= 1-50 µM), incubated 1 hr at room temperature, and 20 µL samples of each reaction taken at time-points of 0, 5, 10, 20, 30, 45, & 60 minutes and quenched in 20 µL of 15X SYBR Green. Fluorescence was measured, and fluorescence versus time plots were normalized to maximal initial fluorescence and background fluorescence. Plots were fitted with nonlinear regression, then initial velocities of each reaction interpolated and normalized to vehicle-only control reactions to give percent activity. Plots of inhibitor concentration versus percent activity were fit with nonlinear regression to interpolate compound IC50. Plots were generated in Prism (GraphPad) and combined in PowerPoint. Active compounds had IC50 determined in at least three separate experiments. Panels E-F: Gel Assay Validation of Hit Compound IC50. Several hit compounds, including those shown, had their IC50 confirmed via gel assay to validate efficacy of the fluorescence-based biochemical assay. Results of the gel and fluorescence assays were in agreement for all compounds tested. Standard time-course reactions containing nicked plasmid were prepared in 150 µL volumes with the indicated concentrations of inhibitor, and incubated at room temperature. Reaction samples were taken at indicated times, quenched, dried in vacuo, resuspended, then visualized by agarose gel electrophoresis. Control lanes containing supercoiled dsDNA plasmid (‘Plasmid’) and undegraded nicked dsDNA plasmid (‘Nicked’) are included. Low-MW residual bands are ssDNA plasmid leftover from TREX1 exonuclease activity.
We altered a reported fluorescence-based exonuclease assay^17,23 for the purposes of HTS. The assay parameters were optimized to limit materials use and maximize the dynamic range of the assay readout. We used this assay to perform a HTS of the three mentioned libraries against recombinant hTREX1(1-242)^WT, hereafter abbreviated as ‘hT1’. In the case of all libraries, compounds eliciting ≤50% activity at their indicated screening concentrations were identified as ‘candidates’.
The biochemical assay used for HTS was also applied to determining candidate IC50. Briefly, time-course reactions were performed for a range of concentrations for each candidate, and plots of fluorescence vs time were normalized to the initial fluorescence of the reaction and the plate-wide background fluorescence. This normalization helped address compounds with inherent effects on the fluorescent readout. Initial velocities were calculated from normalized plots and used to calculate percent activities relative to vehicle-only control reactions. Standard dose-response curves were then constructed to interpolate candidate IC50. […] Candidates that initially tested with IC50 ≤100 µM had their IC50 redetermined in two additional, independent experiments. […] To validate the efficacy of the fluorescence-based assay at determining IC50, several of the hit compounds had their IC50 confirmed using a gel assay previously described by our lab^23. Briefly, a dsDNA plasmid is nicked, the substrate is incubated with TREX1 which degrades off (partially or completely) the nicked strand, and the reaction is quenched in ethanol, dried in vacuo, and visualized via agarose gel electrophoresis. Example data of these validation assays is provided (FIG. 1, Panels E-F).

hT1 = molecular target: T2, hT1 (Homo sapiens, UniProt Q9NSU2); test: jump-dilution reversibility of inhibition; settings: for reversibility classification: by IC50 ratio of jump-dilution
T2 construct: recombinant hTREX1(1-242)^WT
T2 sequence (Q9NSU2 1-242): T1 sequence (Q9NSU2 1-242)
Experimental: FIG. 4: Reversibility of Inhibition for Lead Compounds. Panel A: Summary chart of the results for each lead compound. IC50 ratios were calculated by dividing the […]. An IC50 ratio of 10 is expected for irreversible inhibitors, and the results were classified as follows: ≥ 5.0 → Irreversible, 2.0-5.0 → Ambiguous, 0.5-2.0 → Reversible. Panels B-G: Standard IC50 experiments were conducted with various concentrations of each lead compound. However, before enzyme addition to the reaction components the inhibitor or vehicle was pre-incubated with either the reaction components at ~1X the final concentration (‘Reaction Pre-Incubation’) or the enzyme at ~10X the final concentration (‘Enzyme Pre-Incubation’). The enzyme and reaction components were then combined to initiate reactions, and IC50 calculated as discussed earlier. TIM190 was included as an example of an irreversible inhibitor. Plots were generated in Prism (GraphPad), and figure was assembled in PowerPoint.
To determine whether our leads’ inhibition mechanisms were reversible, we utilized a strategy known as a ‘jump-dilution′^76. With this strategy, an inhibitor is initially incubated with the target at a high concentration, then, the inhibitor and target are diluted into reaction mix and the potency of the inhibitor is compared to a similar reaction without the pre-incubation step. If an inhibitor is covalent, time-dependent (slow-binding), or otherwise irreversible, then it will display potency consistent with the higher initial concentration, while reversible inhibitors’ potency is not meaningfully affected by the pre-incubation. We performed jump dilution experiments for our leads with our earlier described biochemical assay (FIG. 3). Under our conditions, irreversible inhibitors were expected to display a 10-fold potency increase in the jump-dilution reactions.

[2] = molecular target: T3, recombinant wild-type murine TREX1(1-242) (mT1) (Mus musculus, UniProt Q91XB0); test: fluorescence-based exonuclease assay, counter-screen against mTREX1; settings: up to an inhibitor concentration of 100 µM
T3 construct: recombinant wild-type murine TREX1(1-242), hereafter ‘mT1’
T3 sequence (Q91XB0 1-242): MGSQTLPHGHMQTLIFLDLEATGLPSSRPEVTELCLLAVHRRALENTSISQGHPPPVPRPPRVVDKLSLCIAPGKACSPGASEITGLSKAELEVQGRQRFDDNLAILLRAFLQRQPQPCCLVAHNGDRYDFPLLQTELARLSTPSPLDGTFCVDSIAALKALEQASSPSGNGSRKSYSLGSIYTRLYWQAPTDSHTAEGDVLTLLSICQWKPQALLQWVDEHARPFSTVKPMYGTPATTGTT
Experimental: (§1) FIG. 3: Counter-Screening Hit Compounds Against mTREX1 and hTREX2 Enzymes. Panel A: Summary chart of lead compounds’ IC50 against hTREX1 vs mTREX1 versus hTREX2. Panels B-F: Overlay of lead compounds’ dose-response curves for hTREX1, mTREX1, and hTREX2. Dose-response curves were generated as described earlier. Each dose-response curve is representative of three IC50 experiments. Graphs were prepared in Prism (GraphPad), and figure was assembled in PowerPoint.
(§2) We were also interested in the activity of our leads against enzymes more closely related to hT1, namely murine TREX1 and the highly related human TREX2 enzyme. mTREX1 was of interest, since future studies of the lead compounds would presumably take place in a murine model. hTREX2, which also functions as a 3′➔5′ exonuclease, is primarily expressed in keratinocytes (while TREX1 expression is more ubiquitous), and its mutation is not associated with an autoimmune phenotype, but instead results in a hypermutator phenotype in the skin that is conditional upon exposure to ultraviolet radiation^10,72-74. For mTREX1, cross-activity was preferred to allow later efficacy studies in a murine model. […] We determined the IC50 of lead compounds for recombinant wild-type murine TREX1(1-242), hereafter ‘mT1’, and for recombinant wild-type human TREX2(1-236), hereafter ‘hT2’ (FIG. 2). […]

[3] = molecular target: T4, recombinant wild-type human TREX2(1-236) (hT2) (Homo sapiens, UniProt Q9BQ50); test: fluorescence-based exonuclease assay, counter-screen against hTREX2; settings: up to an inhibitor concentration of 100 µM
T4 construct: recombinant wild-type human TREX2(1-236), hereafter ‘hT2’
T4 sequence (Q9BQ50 1-236): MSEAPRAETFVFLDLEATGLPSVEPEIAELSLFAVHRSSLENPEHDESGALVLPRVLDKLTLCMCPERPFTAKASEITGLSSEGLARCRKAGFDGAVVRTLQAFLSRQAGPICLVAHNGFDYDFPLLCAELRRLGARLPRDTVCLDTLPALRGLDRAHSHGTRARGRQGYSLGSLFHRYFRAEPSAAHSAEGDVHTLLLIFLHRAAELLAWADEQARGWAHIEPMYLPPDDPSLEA
Experimental: as §1, §2

[4] = experiment 1, read-out: IC50 #1
[5] = experiment 2, read-out: IC50 #2
[6] = experiment 3, read-out: IC50 #3
[7] = median of three independent experiments, read-out: Median IC50

| SMILES | IC50 [1, 4] [µM] | IC50 [1, 5] [µM] | IC50 [1, 6] [µM] | IC50 [1, 7] [µM] | reversibility classification (hT1) | increase in potency as a result of the jump-dilution (hT1; enzyme pre-incubation vs control reaction, 10-fold expected for irreversible inhibitors) [fold] | inhibition of mT1 [2] | inhibition of hT2 [3] | inhibition of hT1 (in words) [1] |
| --- | --- | --- | --- | --- | --- | --- | --- | --- | --- |
| Cc1cccc(C(=O)Nc2ccc(-c3cc4ccccc4oc3=O)cc2)c1 [TIM003] | 24.9 | 7.8 | 8.8 | 8.8 |  |  |  |  |  |
| Cc1cnc(/C=C/c2ccccc2)c2[nH]c3ccccc3c12 [TIM047] | 16 | 6.8 | 15 | 15 |  |  |  |  |  |
| COc1ccc(N2C(=O)c3ccc(Oc4ccc(Oc5ccc(C(=O)O)cc5)cc4)cc3C2=O)cc1 [TIM050] | 3.7 | 3 | 5.3 | 3.7 |  |  |  |  |  |
| O=C1c2cccc([N+](=O)[O-])c2C(=O)N1c1cccc(-c2nc3ccccc3c(=O)o2)c1 [TIM136] | 5.7 | 9.9 | 10.2 | 9.9 |  |  |  |  |  |
| CCn1c2ccccc2c2cc([C@H]3Nc4ccccc4NC4=C3C(=O)C[C@@H](c3ccc(OC)cc3)C4)ccc21 [TIM137] | 6.7 | 16.2 | 5.6 | 6.7 |  |  |  |  |  |
| Cc1cc(C)c(S(=O)(=O)Nc2ccc3c(c2)c2c(n3S(=O)(=O)c3cc(C)c(C)cc3C)CCCC2=O)cc1C [TIM146] | 15 | 6.4 | 37.9 | 15 |  |  |  |  |  |
| Cc1ccc(-n2c(=O)c3cc4c(=O)n(-c5ccc(C)c(C)c5)c(=O)c4c(C(=O)c4ccc(C(=O)O)cc4)c3c2=O)cc1C [TIM148] | 6.4 | 8.5 | 11.9 | 8.5 |  |  |  |  |  |
| Cc1ccc(-c2noc(-c3cc(N4CCC(C(N)=O)CC4)nc4ccccc34)n2)cc1 [TIM178] | 6.9 | 3.7 | 7.2 | 6.9 |  |  |  |  |  |
| CC(C)(C)c1ccc(CC2CCN(C(=O)c3cncn3-c3cccc(-c4cccc5c4sc4ccccc45)c3)CC2)cc1 [TIM181] | 3.5 | 5.9 | 4.6 | 4.6 |  |  |  |  |  |
| N#Cc1c(O)nc(SCC(=O)N2c3ccccc3Sc3ccccc32)nc1-c1ccccc1 [TIM183] | 3.6 | 8.5 | 8.8 | 8.5 |  |  |  |  |  |
| COc1ccc2[nH]c3c(c2c1)CCC[C@H]3NC(=O)COc1ccc2c3c(c(=O)oc2c1)CCCC3 [TIM184] | 5.1 | 7 | 7 | 7 |  |  |  |  |  |
| Cc1ccc2nc(N3C(=O)C(=O)C(=C(O)c4ccc5c(c4)C[C@H](C)O5)[C@@H]3c3cccs3)sc2c1 [TIM185] | 13.1 | 14.9 | 113 | 14.9 |  |  |  |  |  |
| O=C(O)c1ccc(-c2ccc(/C=c3\sc4nc5cc(Br)cnc5n4c3=O)o2)cc1 [TIM190] | 10.7 | 10.7 | 13.5 | 10.7 | irreversible |  |  |  |  |
| Cn1c(O)c(N=NC(=O)[C@@H]2COc3cc4ccccc4cc3O2)c2cc(Br)ccc21 [TIM191] | 8.5 | 7.8 | 10 | 8.5 |  |  |  |  |  |
| COc1cc2c3c(ccc4c5ccc6c7c(cc(OC)c(c1c34)c75)-c1ccccc1C6=O)-c1ccccc1C2=O [TIM192] | 13.3 | 13 | 8.1 | 13 |  |  |  |  |  |
| Cc1ccc(N2NC(=O)/C(=C/c3ccc(-c4ccc5c(c4)C(=O)NC5=O)o3)C2=O)cc1C [TIM207] | 13.5 | 7.8 | 8.9 | 8.9 | ambiguous | 2.9 |  |  |  |
| O=C1Nc2ccc(S(=O)(=O)ON3C(=O)c4cccc5cccc(c45)C3=O)c3cccc1c23 [TIM213] | 2.4 | 5 | 10.7 | 5 |  |  |  |  |  |
| O=c1c2cnc3nc(-c4ccc(Cl)cc4)nn3c2ccn1Cc1cccnc1 [TIM215] | 13.9 | 14.6 | 12 | 13.9 |  |  |  |  |  |
| O=C(c1ccc2nonc2c1)N1CCCCC1c1nc2cc(F)ccc2[nH]1 (stereo not shown) [TIM218] | 12.7 | 7.6 | 17.8 | 12.7 |  |  | no detectable inhibition; also recorded: does not inhibit mT1 | no detectable inhibition | did inhibit hT1 |
